# Test results taken from ChEMBL document CHEMBL3885881, “DrugMatrix”.
# Species on record: Rattus norvegicus
# Test: DrugMatrix - Regimen: Daily Repeat
# Type: toxicity, organism-based, Sprague-Dawley
# Design: regimen Daily Repeat, gender Male, age 6-8 weeks
# Conditions: in vivo, po, route oral GAVAGE, vehicle .5 % CMC; for ABSOLUTE BASOPHIL / ABSOLUTE EOSINOPHIL / ABSOLUTE LYMPHOCYTE / ABSOLUTE MONOCYTE / ABSOLUTE SEGMENTED NEUTROPHIL / BASOPHIL / EOSINOPHIL / ERYTHROCYTE COUNT / HEMATOCRIT / HEMOGLOBIN / LEUKOCYTE COUNT / LYMPHOCYTE / MEAN CORPUSCULAR HEMOGLOBIN / MEAN CORPUSCULAR HEMOGLOBIN CONCENTRATION / MEAN CORPUSCULAR VOLUME / MONOCYTE / NEUTROPHIL / NUCLEATED RED BLOOD CELLS / PLATELET COUNT: tissue Blood; for ALANINE AMINOTRANSFERASE / ALBUMIN / ALKALINE PHOSPHATASE / ASPARTATE AMINOTRANSFERASE / BLOOD UREA NITROGEN / CARBON DIOXIDE / CHLORIDE / CHOLESTEROL / CREATINE PHOSPHOKINASE / CREATININE / GLUCOSE / LACTATE DEHYDROGENASE / LIPASE / PHOSPHORUS / POTASSIUM / SODIUM / TOTAL BILIRUBIN / TOTAL PROTEIN / URIC ACID: tissue Plasma
# [1] = 0 mg/kg, 72 h, dose level Control, time 3 day
# [2] = 0 mg/kg, 120 h, dose level Control, time 5 day
# [3] = 580 mg/kg, 72 h, dose level High, time 3 day
smiles,measurement,setting,value
CN1C(=O)COc2c(C(=O)NC3CN4CCC3CC4)cc(Cl)cc21 (centres undefined) [AZASETRON],ABSOLUTE BASOPHIL,[1],0 CELLS/uL
same,ABSOLUTE EOSINOPHIL,[1],47.67 CELLS/uL
same,ABSOLUTE LYMPHOCYTE,[1],15937.67 CELLS/uL
same,ABSOLUTE MONOCYTE,[1],138.33 CELLS/uL
same,ABSOLUTE SEGMENTED NEUTROPHIL,[1],1443 CELLS/uL
same,BASOPHIL,[1],0%
same,EOSINOPHIL,[1],0.33%
same,ERYTHROCYTE COUNT,[1],5.45 x10E6/uL
same,HEMATOCRIT,[1],34.43%
same,HEMOGLOBIN,[1],13.38 G/DL
same,LEUKOCYTE COUNT,[1],17.57 x10E3/uL
same,LYMPHOCYTE,[1],90.33%
same,MEAN CORPUSCULAR HEMOGLOBIN,[1],24.6 pg
same,MEAN CORPUSCULAR HEMOGLOBIN CONCENTRATION,[1],38.88 G/DL
same,MEAN CORPUSCULAR VOLUME,[1],63.27 fL
same,MONOCYTE,[1],0.83%
same,NEUTROPHIL,[1],8.5%
same,NUCLEATED RED BLOOD CELLS,[1],0 /100WBC
same,PLATELET COUNT,[1],1298 x10E3/uL
same,ALANINE AMINOTRANSFERASE,[1],47.67 u/L
same,ALBUMIN,[1],4.18 G/DL
same,ALKALINE PHOSPHATASE,[1],398.5 u/L
same,ASPARTATE AMINOTRANSFERASE,[1],93.17 u/L
same,BLOOD UREA NITROGEN,[1],16 mg/dL
same,CARBON DIOXIDE,[1],29.17 mmol/L
same,CHLORIDE,[1],98.17 MEQ/L
same,CHOLESTEROL,[1],68.83 mg/dL
same,CREATINE PHOSPHOKINASE,[1],467.33 u/L
same,CREATININE,[1],0.14 mg/dL
same,GLUCOSE,[1],151.67 mg/dL
same,LACTATE DEHYDROGENASE,[1],597.5 u/L
same,LIPASE,[1],9.33 u/L
same,PHOSPHORUS,[1],11.97 mg/dL
same,POTASSIUM,[1],6.43 MEQ/L
same,SODIUM,[1],140.68 MEQ/L
same,TOTAL BILIRUBIN,[1],0.18 mg/dL
same,TOTAL PROTEIN,[1],5.82 G/DL
same,URIC ACID,[1],1.48 mg/dL
same,ABSOLUTE BASOPHIL,[2],0 CELLS/uL
same,ABSOLUTE EOSINOPHIL,[2],31 CELLS/uL
same,ABSOLUTE LYMPHOCYTE,[2],14327.83 CELLS/uL
same,ABSOLUTE MONOCYTE,[2],102.83 CELLS/uL
same,ABSOLUTE SEGMENTED NEUTROPHIL,[2],1321.67 CELLS/uL
same,BASOPHIL,[2],0%
same,EOSINOPHIL,[2],0.17%
same,ERYTHROCYTE COUNT,[2],5.79 x10E6/uL
same,HEMATOCRIT,[2],36.1%
same,HEMOGLOBIN,[2],14.15 G/DL
same,LEUKOCYTE COUNT,[2],15.78 x10E3/uL
same,LYMPHOCYTE,[2],90.5%
same,MEAN CORPUSCULAR HEMOGLOBIN,[2],24.48 pg
same,MEAN CORPUSCULAR HEMOGLOBIN CONCENTRATION,[2],39.22 G/DL
same,MEAN CORPUSCULAR VOLUME,[2],62.4 fL
same,MONOCYTE,[2],0.67%
same,NEUTROPHIL,[2],8.67%
same,NUCLEATED RED BLOOD CELLS,[2],0.17 /100WBC
same,PLATELET COUNT,[2],1211.67 x10E3/uL
same,ALANINE AMINOTRANSFERASE,[2],49 u/L
same,ALBUMIN,[2],4.27 G/DL
same,ALKALINE PHOSPHATASE,[2],356.67 u/L
same,ASPARTATE AMINOTRANSFERASE,[2],90.17 u/L
same,BLOOD UREA NITROGEN,[2],20.5 mg/dL
same,CARBON DIOXIDE,[2],29.17 mmol/L
same,CHLORIDE,[2],98 MEQ/L
same,CHOLESTEROL,[2],69.83 mg/dL
same,CREATINE PHOSPHOKINASE,[2],312 u/L
same,CREATININE,[2],0.21 mg/dL
same,GLUCOSE,[2],149.83 mg/dL
same,LACTATE DEHYDROGENASE,[2],322 u/L
same,LIPASE,[2],10 u/L
same,PHOSPHORUS,[2],12 mg/dL
same,POTASSIUM,[2],6.75 MEQ/L
same,SODIUM,[2],142.8 MEQ/L
same,TOTAL BILIRUBIN,[2],0.17 mg/dL
same,TOTAL PROTEIN,[2],6.1 G/DL
same,URIC ACID,[2],1.68 mg/dL
same,ABSOLUTE BASOPHIL,[3],0 CELLS/uL
same,ABSOLUTE EOSINOPHIL,[3],0 CELLS/uL
same,ABSOLUTE LYMPHOCYTE,[3],13751.33 CELLS/uL
same,ABSOLUTE MONOCYTE,[3],160.33 CELLS/uL
same,ABSOLUTE SEGMENTED NEUTROPHIL,[3],1088.33 CELLS/uL
same,BASOPHIL,[3],0%
same,EOSINOPHIL,[3],0%
same,ERYTHROCYTE COUNT,[3],6.01 x10E6/uL
same,HEMATOCRIT,[3],37.33%
same,HEMOGLOBIN,[3],14.57 G/DL
same,LEUKOCYTE COUNT,[3],15 x10E3/uL
same,LYMPHOCYTE,[3],91.67%
same,MEAN CORPUSCULAR HEMOGLOBIN,[3],24.27 pg
same,MEAN CORPUSCULAR HEMOGLOBIN CONCENTRATION,[3],39.03 G/DL
same,MEAN CORPUSCULAR VOLUME,[3],62.13 fL
same,MONOCYTE,[3],1%
same,NEUTROPHIL,[3],7.33%
same,NUCLEATED RED BLOOD CELLS,[3],0 /100WBC
same,PLATELET COUNT,[3],1244 x10E3/uL
same,ALANINE AMINOTRANSFERASE,[3],64.33 u/L
same,ALBUMIN,[3],4.27 G/DL
same,ALKALINE PHOSPHATASE,[3],372.33 u/L
same,ASPARTATE AMINOTRANSFERASE,[3],96.67 u/L
same,BLOOD UREA NITROGEN,[3],17.33 mg/dL
same,CARBON DIOXIDE,[3],26.67 mmol/L
same,CHLORIDE,[3],99.33 MEQ/L
same,CHOLESTEROL,[3],72.67 mg/dL
same,CREATINE PHOSPHOKINASE,[3],527.67 u/L
same,CREATININE,[3],0.25 mg/dL
same,GLUCOSE,[3],150 mg/dL
same,LACTATE DEHYDROGENASE,[3],877 u/L
same,LIPASE,[3],9.67 u/L
same,PHOSPHORUS,[3],11.3 mg/dL
same,POTASSIUM,[3],6.57 MEQ/L
same,SODIUM,[3],141.63 MEQ/L
same,TOTAL BILIRUBIN,[3],0.23 mg/dL
same,TOTAL PROTEIN,[3],6 G/DL
same,URIC ACID,[3],1.73 mg/dL
